Test results: EP4617278A1, “NUCLEOTIDE ANALOG, AND COMPOSITION AND USE THEREOF” (priority 2022, dated 2024)
pEC50: −log10 of the molar value.

The compounds below were run on SARS-CoV-2 replicon. Settings: read-out: SARS-CoV-2 Replicon (Huh-7cell) EC50.
Type: cell-based
With `CC(C)C(=O)O[C@H]1[C@@H](OC(=O)C(C)C)[C@](C#N)(c2ccc3c(N)ncnn23)O[C@@H]1COP(=O)(OCCSC(=O)C(C)(C)C)OCCSC(=O)C(C)(C)C` [Compound 30, (2R,3R,4R,5R)-2-(4-aminopyrrolo[2,1-f][1,2,4]triazin-7-yl)-5-((((bis(2-(pivaloylthio)ethoxy))phosphoryl)oxy)methyl)-2-cyanotetrahydrofuran-3,4-diyl bis(2-methylpropionate)] the pEC50 was > 8.30.
With `CCC(CC)COC(=O)[C@H](Cc1ccccc1)N[P@](=O)(OCOC(=O)OC(C)C)OC[C@H]1O[C@@](C#N)(c2ccc3c(N)ncnn23)[C@H](OC(=O)C(C)C)[C@@H]1OC(=O)C(C)C` [Compound 31a, (2R,3R,4R,5R)-2-(4-aminopyrrolo[2,1-f][1,2,4]triazin-7-yl)-2-cyano-5-((((R)-(((S)-1-(2-ethylbutoxy)-1-oxo-3-phenylpropan-2-yl)amino)(((isopropoxycarbonyl)oxy)methoxy)phosphoryl)oxy)methyl)tetrahydrofuran-3,4-diyl bis(2-methylpropionate)] the pEC50 was 7.30 to 8.00.
In the case of `CCC(CC)COC(=O)[C@H](Cc1ccccc1)N[P@@](=O)(OCOC(=O)OC(C)C)OC[C@H]1O[C@@](C#N)(c2ccc3c(N)ncnn23)[C@H](OC(=O)C(C)C)[C@@H]1OC(=O)C(C)C` [Compound 31b, (2R,3R,4R,5R)-2-(4-aminopyrrolo[2,1-f][1,2,4]triazin-7-yl)-2-cyano-5-((((S)-(((S)-1-(2-ethylbutoxy)-1-oxo-3-phenylpropan-2-yl)amino)(((isopropoxycarbonyl)oxy)methoxy)phosphoryl)oxy)methyl)tetrahydrofuran-3,4-diyl bis(2-methylpropionate)], the pEC50 was 7.30 to 8.00.
`CCC(CC)COC(=O)C1(N[P@](=O)(OCOC(=O)OC(C)C)OC[C@H]2O[C@@](C#N)(c3ccc4c(N)ncnn34)[C@H](OC(=O)C(C)C)[C@@H]2OC(=O)C(C)C)CCC1` [Compound 32a, (2R,3R,4R,5R)-2-(4-aminopyrrolo[2,1-f][1,2,4]triazin-7-yl)-2-cyano-5-((((R)-((1-((2-ethylbutoxy)carbonyl)cyclobutyl)amino)(((isopropoxycarbonyl)oxy)methoxy)phosphoryl)oxy)methyl)tetrahydrofuran-3,4-diyl bis(2-methylpropionate)] showed a pEC50 of 7.30 to 8.00.
Work on `CCC(CC)COC(=O)C1(N[P@@](=O)(OCOC(=O)OC(C)C)OC[C@H]2O[C@@](C#N)(c3ccc4c(N)ncnn34)[C@H](OC(=O)C(C)C)[C@@H]2OC(=O)C(C)C)CCC1` [Compound 32b, (2R,3R,4R,5R)-2-(4-aminopyrrolo[2,1-f][1,2,4]triazin-7-yl)-2-cyano-5-((((S)-((1-((2-ethylbutoxy)carbonyl)cyclobutyl)amino)(((isopropoxycarbonyl)oxy)methoxy)phosphoryl)oxy)methyl)tetrahydrofuran-3,4-diyl bis(2-methylpropionate)] yielded a pEC50 of 7.30 to 8.00.
Compound `CCCCCOC(=O)C[C@H](N[P@@](=O)(OC[C@H]1O[C@@](C#N)(c2ccc3c(N)ncnn23)[C@H](OC(=O)C(C)C)[C@@H]1OC(=O)C(C)C)Oc1ccccc1)C(=O)OCCCCC` [Compound 38a, (2R,3R,4R,5R)-2-(4-aminopyrrolo[2,1-f][1,2,4]triazin-7-yl)-2-cyano-5-((((R)-(((S)-1,4-dipentyloxy-1,4-dioxobutan-2-yl)amino)(phenoxy)phosphoryl)oxy)methyl)tetrahydrofuran-3,4-diyl bis(2-methylpropionate)] has a pEC50 of 6.30 to 7.30.
In the case of `CCCCCOC(=O)C[C@H](N[P@](=O)(OC[C@H]1O[C@@](C#N)(c2ccc3c(N)ncnn23)[C@H](OC(=O)C(C)C)[C@@H]1OC(=O)C(C)C)Oc1ccccc1)C(=O)OCCCCC` [Compound 38b, (2R,3R,4R,5R)-2-(4-aminopyrrolo[2,1-f][1,2,4]triazin-7-yl)-2-cyano-5-((((S)-(((S)-1,4-dipentyloxy-1,4-dioxobutan-2-yl)amino)(phenoxy)phosphoryl)oxy)methyl)tetrahydrofuran-3,4-diyl bis(2-methylpropionate)], the pEC50 was 7.30 to 8.00.
In the case of `CCCCCOC(=O)C[C@H](N[P@@](=O)(OC[C@H]1O[C@@](C#N)(c2ccc3c(N)ncnn23)[C@H](OC(=O)C(C)C)[C@@H]1OC(=O)C(C)C)Oc1ccc(C(C)(C)C)cc1)C(=O)OCCCCC` [Compound 39a, (2R,3R,4R,5R)-2-(4-aminopyrrolo[2,1-f][1,2,4]triazin-7-yl)-2-cyano-5-((((R)-(((S)-1,4-dipentyloxy-1,4-dioxobutan-2-yl)amino)(4-tert-butylphenoxy)phosphoryl)oxy)methyl)tetrahydrofuran-3,4-diyl bis(2-methylpropionate)], the pEC50 was 6.30 to 7.30.
With `CCCCCOC(=O)C[C@H](N[P@](=O)(OC[C@H]1O[C@@](C#N)(c2ccc3c(N)ncnn23)[C@H](OC(=O)C(C)C)[C@@H]1OC(=O)C(C)C)Oc1ccc(C(C)(C)C)cc1)C(=O)OCCCCC` [Compound 39b, (2R,3R,4R,5R)-2-(4-aminopyrrolo[2,1-f][1,2,4]triazin-7-yl)-2-cyano-5-((((S)-(((S)-1,4-dipentyloxy-1,4-dioxobutan-2-yl)amino)(4-tert-butylphenoxy)phosphoryl)oxy)methyl)tetrahydrofuran-3,4-diyl bis(2-methylpropionate)] the pEC50 was 7.30 to 8.00.
`CCC(CC)COC(=O)C1(N[P@@](=O)(OC[C@H]2O[C@@](C#N)(c3ccc4c(N)ncnn34)[C@H](OC(=O)C(C)C)[C@@H]2OC(=O)C(C)C)Oc2ccccc2)CCC1` [Compound 40a, (2R,3R,4R,5R)-2-(4-aminopyrrolo[2,1-f][1,2,4]triazin-7-yl)-2-cyano-5-((((R)-((1-((2-ethylbutoxy)carbonyl)cyclobutyl)amino)(phenoxy)phosphoryl)oxy)methyl)tetrahydrofura n-3,4-diyl bis(2-methylpropionate)] gave a pEC50 of 7.30 to 8.00.
In the case of `CCC(CC)COC(=O)C1(N[P@](=O)(OC[C@H]2O[C@@](C#N)(c3ccc4c(N)ncnn34)[C@H](OC(=O)C(C)C)[C@@H]2OC(=O)C(C)C)Oc2ccccc2)CCC1` [Compound 40b, (2R,3R,4R,5R)-2-(4-aminopyrrolo[2,1-f][1,2,4]triazin-7-yl)-2-cyano-5-((((S)-((1-((2-ethylbutoxy)carbonyl)cyclobutyl)amino)(phenoxy)phosphoryl)oxy)methyl)tetrahydrofura n-3,4-diyl bis(2-methylpropionate)], the pEC50 was 6.30 to 7.30.
Compound `CCC(CC)COC(=O)[C@H](Cc1ccccc1)N[P@@](=O)(OC[C@H]1O[C@@](C#N)(c2ccc3c(N)ncnn23)[C@H](OC(=O)C(C)C)[C@@H]1OC(=O)C(C)C)Oc1ccccc1` [Compound 41a, (2R,3R,4R,5R)-2-(4-aminopyrrolo[2,1-f][1,2,4]triazin-7-yl)-2-cyano-5-((((R)-(((S)-1-(2-ethylbutoxy)-1-oxo-3-phenylpropan-2-yl)amino)(phenoxy)phosphoryl)oxy)methyl)tetrahydrofuran-3,4-diyl bis(2-methylpropionate)] has a pEC50 of 6.30 to 7.30.
`CCC(CC)COC(=O)[C@H](Cc1ccccc1)N[P@](=O)(OC[C@H]1O[C@@](C#N)(c2ccc3c(N)ncnn23)[C@H](OC(=O)C(C)C)[C@@H]1OC(=O)C(C)C)Oc1ccccc1` [Compound 41b, (2R,3R,4R,5R)-2-(4-aminopyrrolo[2,1-f][1,2,4]triazin-7-yl)-2-cyano-5-((((S)-(((S)-1-(2-ethylbutoxy)-1-oxo-3-phenylpropan-2-yl)amino)(phenoxy)phosphoryl)oxy)methyl)tetrahydrofuran-3,4-diyl bis(2-methylpropionate)] showed a pEC50 of 8.00 to 8.30.
With `CC(=O)OCO[P@@](=O)(OC[C@H]1O[C@@](C#N)(c2ccc3c(N)ncnn23)[C@H](OC(=O)C(C)C)[C@@H]1OC(=O)C(C)C)Oc1ccc(C(C)(C)C)cc1` [Compound 43a, (2R,3R,4R,5R)-2-(4-aminopyrrolo[2,1-f][1,2,4]triazin-7-yl)-5-(((((S)-acetoxylmethoxy)(4-tert-butylphenoxy)phosphoryl)oxy)methyl)-2-cyanotetrahydrofuran-3,4-diyl bis(2-methylpropionate)] the pEC50 was 8.00 to 8.30.
`CC(=O)OCO[P@](=O)(OC[C@H]1O[C@@](C#N)(c2ccc3c(N)ncnn23)[C@H](OC(=O)C(C)C)[C@@H]1OC(=O)C(C)C)Oc1ccc(C(C)(C)C)cc1` [Compound 43b, (2R,3R,4R,5R)-2-(4-aminopyrrolo[2,1-f][1,2,4]triazin-7-yl)-5-(((((R)-acetoxylmethoxy)(4-tert-butylphenoxy)phosphoryl)oxy)methyl)-2-cyanotetrahydrofuran-3,4-diyl bis(2-methylpropionate)] gave a pEC50 of 8.00 to 8.30.
In the case of `CC(C)C(=O)O[C@H]1[C@@H](OC(=O)C(C)C)[C@](C#N)(c2ccc3c(N)ncnn23)O[C@@H]1CO[P@](=O)(OCOC(=O)C(C)(C)C)Oc1ccc(C(C)(C)C)cc1` [Compound 44a, (2R,3R,4R,5R)-2-(4-aminopyrrolo[2,1-f][1,2,4]triazin-7-yl)-5-(((((S)-4-tert-butylphenoxy)(((tert-butylcarbonyl)oxy)methoxy)phosphoryl)oxy)methyl)-2-cyanotetrahydrofuran-3,4-diyl bis(2-methylpropionate)], the pEC50 was 8.00 to 8.30.
Compound `CC(C)C(=O)O[C@H]1[C@@H](OC(=O)C(C)C)[C@](C#N)(c2ccc3c(N)ncnn23)O[C@@H]1CO[P@@](=O)(OCOC(=O)C(C)(C)C)Oc1ccc(C(C)(C)C)cc1` [Compound 44b, (2R,3R,4R,5R)-2-(4-aminopyrrolo[2,1-f][1,2,4]triazin-7-yl)-5-(((((R)-4-tert-butylphenoxy)(((tert-butylcarbonyl)oxy)methoxy)phosphoryl)oxy)methyl)-2-cyanotetrahydrofuran-3,4-diyl bis(2-methylpropionate)] has a pEC50 of 7.30 to 8.00.
In the case of `CC(C)C(=O)OCOP(=O)(OCOC(=O)C(C)C)OC[C@H]1O[C@@](C#N)(c2ccc3c(N)ncnn23)[C@H](OC(=O)C(C)C)[C@@H]1OC(=O)C(C)C` [Compound 45], the pEC50 was ≥ 8.30.
Compound `CCCCCCCCCCCCOC(=O)[C@H](C)N[P@@](=O)(OC[C@H]1O[C@@](C#N)(c2ccc3c(N)ncnn23)[C@H](OC(=O)C(C)C)[C@@H]1OC(=O)C(C)C)Oc1ccccc1` [Compound 46a] has a pEC50 of 6.30 to 7.30.
With `CCCCCCCCCCCCOC(=O)[C@H](C)N[P@](=O)(OC[C@H]1O[C@@](C#N)(c2ccc3c(N)ncnn23)[C@H](OC(=O)C(C)C)[C@@H]1OC(=O)C(C)C)Oc1ccccc1` [Compound 46b, (2R,3R,4R,5R)-2-(4-aminopyrrolo[2,1-f][1,2,4]triazin-7-yl)-2-cyano-5-((((S)-(((S)-1-(dodecyloxy)-1-oxopropan-2-yl)amino)(phenoxy)phosphoryl)oxy)methyl)tetrahydrofuran-3,4-diyl bis(2-methylpropionate)] the pEC50 was 6.30 to 7.30.
